Reference: article PMC12624727, “Benzodeazaoxaflavin Sirtuin Inhibitors Inhibit Schistosoma mansoni Sirt2 and Cause Phenotypic Changes and Lethality in Schistosomula and Adult Worm Stages” (ACS Infectious Diseases, 2025)
Like-named read-outs stand apart in the source and are kept apart here.

How the values were obtained:
[1] = tested on: S. mansoni (Puerto Rican) worm pairs; test: Worm pairing of adult worm pairs (Puerto Rican strain); assay type: cell-based, Schistosoma mansoni; conditions: % of DMSO control
[2] = tested on: S. mansoni (Puerto Rican) worm pairs; test: Egg laying by adult worm pairs (Puerto Rican strain); assay type: cell-based, Schistosoma mansoni; conditions: % of DMSO control
[3] = tested on: adult S. mansoni (Liberian strain) worm pairs; test: Adult worm (Liberian strain) in vitro viability assay; assay type: cell-based, Schistosoma mansoni; conditions: for adult worms' percentage of viability reduction, 72 h: SD in brackets; for IC50: Schistosoma mansoni, 72 h, Liberian strain
SmSirt2 = SmSirt2 (Schistosoma mansoni, UniProt T1VXA1); test: In vitro SmSirt2 inhibition assay, homogeneous fluorescence-based, ZMAL substrate; assay type: biochemical; conditions: for IC50: read-out: IC50 SmSirt2, ZMAL substrate
Description: We first improved the synthetic method to obtain most of the BDFs analogues 1–12 (Figure ), and we tested them against recombinant SmSirt2 using a homogeneous, fluorescent-based in vitro assay with (Z)-(Ac)-Lys-7-amino-4-methylcoumarin (ZMAL) as the substrate.
The BDF4 compounds 1–12 were tested for their inhibitory activity against SmSirt2 using a fluorescence-based assay with ZMAL as the substrate. Their activity against hSirt2 has been previously reported. ,
For the screening of compounds 1–12, a homogeneous fluorescence-based assay previously described by some of us was used to determine SmSirt2 activity.

hSirt2 = conditions: cited from earlier work
[4] = tested on: adult S. mansoni (Puerto Rican strain) worm pairs; conditions: for reduction of viability of adult worm pairs: concentration not given, Puerto Rican strain; for viability of adult worm pairs after recovery: both, Puerto Rican, Schistosoma mansoni
[5] = tested on: S. mansoni newly transformed schistosomula (NTS), Liberian strain; test: NTS (Liberian strain) in vitro viability assay; assay type: cell-based, Schistosoma mansoni; conditions: for percentage of reduction of NTS viability, 72 h: SD in brackets; for IC50: 72 h, Liberian strain
[6] = tested on: cytochrome c release in S. mansoni (Puerto Rican strain) worms; test: Western blot of cytosolic cytochrome c in worm extracts; assay type: cell-based, Schistosoma mansoni; conditions: 1 μM, 24 h (legend of Figure 5)
Description: To determine if the Sirt2 inhibitors trigger apoptosis through the cytochrome c pathway, we examined cytochrome c release from mitochondria.
5 Effects of selected Sirt2 inhibitors on cytosolic cytochrome c expression. Representative immunoblots of cytosolic protein fractions extracted from S. mansoni adult worm pairs are shown. The worms were treated with the indicated Sirt2 inhibitors (10 μM) for 48 h. DMSO (vehicle), TSA (1 μM, 24 h), a HDAC pan-inhibitor, and salermide (Sal 25 μM, 48 h), a Sirt1/Sirt2 inhibitor, were used as controls. The α-tubulin signal was used for normalization. Quantitation of cytochrome c relative to the vehicle-treated sample is shown.
Ten pairs of adult parasites were treated with selected Sirt inhibitors for either 24 or 48 h at partially lethal and sublethal concentrations. The concentrations of compounds were chosen based on the viability curve. Positive controls in the experiments included TSA, a pan-HDAC inhibitor, and salermide, a hSirt1/2 inhibitor, while DMSO (vehicle) served as negative control. Parasites were lysed in a 0.5% Triton PBS buffer by strokes, and the lysates were then centrifuged to collect the soluble fractions (cytosol). The insoluble fractions were extracted with 0.25 N HCl at +4 °C for 18 h, followed by neutralization with 1/10 volume of 2 N NaOH. Samples were analyzed using 15% SDS-PAGE and Western blotting. […]

[7] = ref footnote b (reference number not given)

SmSirt2, sequence (T1VXA1 entry or part of it): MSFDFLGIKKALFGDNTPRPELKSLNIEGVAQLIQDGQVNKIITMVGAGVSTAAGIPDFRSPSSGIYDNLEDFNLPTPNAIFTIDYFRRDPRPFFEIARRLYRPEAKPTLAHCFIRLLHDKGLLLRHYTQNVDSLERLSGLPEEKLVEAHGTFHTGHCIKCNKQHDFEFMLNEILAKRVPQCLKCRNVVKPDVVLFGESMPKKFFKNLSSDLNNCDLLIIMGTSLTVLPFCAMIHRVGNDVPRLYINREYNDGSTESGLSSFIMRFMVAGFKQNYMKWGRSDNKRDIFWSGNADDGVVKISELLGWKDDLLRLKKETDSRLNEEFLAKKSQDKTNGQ

Row | Structure (SMILES) | % worm pairing ([1]; 1 μM, 24 h, single experiment) [%] | % worm pairing ([1]; 1 μM, 48 h, single experiment) [%] | % worm pairing ([1]; 1 μM, 72 h, single experiment) [%] | % worm pairing ([1]; 10 μM, 24 h, SD in brackets) | % worm pairing ([1]; 10 μM, 48 h, SD in brackets) | % worm pairing ([1]; 10 μM, 72 h, SD in brackets) | % worm pairing ([1]; 20 μM, 24 h, SD in brackets) | % worm pairing ([1]; 20 μM, 48 h, SD in brackets) | % worm pairing ([1]; 20 μM, 72 h, SD in brackets) | % egg laying ([2]; 1 μM, 24 h, single experiment) [%] | % egg laying ([2]; 1 μM, 48 h, single experiment) [%] | adult worms' percentage of viability reduction, 72 h ([3]; 20 μM) | IC50 [3] [µM] | IC50 (SmSirt2) [µM] | IC50 (hSirt2; [7]) [µM] | percentage of reduction of NTS viability, 72 h ([5]; 0.1 μM) | percentage of reduction of NTS viability, 72 h ([5]; 1 μM) | percentage of reduction of NTS viability, 72 h ([5]; 10 μM) | percentage of reduction of NTS viability, 72 h ([5]; 20 μM) | IC50 ([5]; Schistosoma mansoni) [µM] | other results
1 | CCCn1c(=O)nc2oc3ccc4ccccc4c3cc-2c1=O [Compound 5, 10-Propyl-9H-benzo[5,6]chromeno[2,3-d]pyrimidine-9,11(10H)-dione] | 100 | 100 | 100 | 90 (14) % | 100 (14) % | 100 (14) % | 0 (0) % | 10 (14) % | 0 (0) % | 104 | 94 | 91.7 (2.8) % | 3.35 | 8 ± 0.7 | 12.5 ± 0.5 | 24 (0) % | 100 (0) % | 100 (0) % | 100 (0) % | ~0.1 | % egg laying ([2]; 1 μM, 72 h, single experiment): 144%; % egg laying ([2]; 10 μM, 24 h, SD in brackets): 55 (15) %; % egg laying ([2]; 10 μM, 48 h, SD in brackets): 73 (33) %; % egg laying ([2]; 10 μM, 72 h, SD in brackets): 75 (7) %; % egg laying ([2]; 20 μM, 24 h, SD in brackets): 12 (16) %; % egg laying ([2]; 20 μM, 48 h, SD in brackets): 11 (14) %; % egg laying ([2]; 20 μM, 72 h, SD in brackets): 13 (10) %; adult worms' percentage of viability reduction, 72 h ([3]; 1 μM): 25.9 (3.7) %; reduction of viability of adult worm pairs ([4]; 24 h): approximately 80%; viability of adult worm pairs after recovery ([4]; 72 h): 40%; IC50 [5]: 0.12 µM
2 | C=CCn1c(=O)nc2oc3ccc4ccccc4c3cc-2c1=O [Compound 4, 10-Allyl-9H-benzo[5,6]chromeno[2,3-d]pyrimidine-9,11(10H)-dione] | 100 | 100 | 100 | 90 (14) % | 90 (14) % | 90 (14) % | 0 (0) % | 20 (0) % | 60 (0) % | 72 | 68 | 94.4 (0) % | 2.03 |  | 10.8 ± 0.3 | 20 (0) % | 100 (0) % | 100 (0) % | 100 (0) % | ~0.1 | % egg laying ([2]; 1 μM, 72 h, single experiment): 95%; % egg laying ([2]; 10 μM, 24 h, SD in brackets): 61(6) %; % egg laying ([2]; 10 μM, 48 h, SD in brackets): 82 (12) %; % egg laying ([2]; 10 μM, 72 h, SD in brackets): 79 (19) %; % egg laying ([2]; 20 μM, 24 h, SD in brackets): 11 (6) %; % egg laying ([2]; 20 μM, 48 h, SD in brackets): 7 (5) %; adult worms' percentage of viability reduction, 72 h ([3]; 1 μM): 40.7 (3.7) %; inhibition at 50 µM (SmSirt2): 53.9%; reduction of viability of adult worm pairs ([4]; 24 h): approximately 80%; viability of adult worm pairs after recovery ([4]; 72 h): 50%; IC50 [5]: 0.12 µM
3 | CCn1c(=O)nc2oc3ccc4ccccc4c3cc-2c1=O [Compound 3, 10-Ethyl-9H-benzo[5,6]chromeno[2,3-d]pyrimidine-9,11(10H)-dione] |  |  |  |  |  |  |  |  |  |  |  | 80.3 (5.4) % | > 10 | 12.6 ± 2.2 | 30 ± 1.2 |  | 40 (0) % | 100 (0) % | 100 (0) % | 1.03 | adult worms' percentage of viability reduction, 72 h ([3]; 10 μM): 49 (0) %
4 | O=C1NC(=O)N(c2ccccc2)C(=O)/C1=C/c1c(O)ccc2ccccc12 [Compound 10] |  |  |  |  |  |  |  |  |  |  |  |  |  |  |  |  |  |  |  |  | inhibition at 50 µM (SmSirt2): 3.5%; inhibition of SmSirt2 in words (SmSirt2): failed to inhibit; % inhibition at 50 μM hSirt2 (hSirt2; 50 μM, ref footnote a (reference number not given)): 0.7% ^a; inhibition of hSirt2 in words (hSirt2; ref not printed (previously reported)): failed to inhibit
5 | CCCCn1c(=O)nc2oc3ccc4ccccc4c3cc-2c1=O [Compound 6, 10-Butyl-9H-benzo[5,6]chromeno[2,3-d]pyrimidine-9,11(10H)-dione] |  |  |  |  |  |  |  |  |  |  |  |  |  | 7.8 ± 0.8 | 16.9 ± 0.8 |  |  |  | 34 (1) % |  | 
6 | O=c1nc2oc3ccc4ccccc4c3cc-2c(=O)[nH]1 [Compound 1, 7-Oxa-8,10-Diazabenzo[a]anthracene-9,11-dione] | 100 | 100 | 100 | 100 (0) % | 100 (0) % | 100 (0) % | 100 (0) % | 100 (0) % | 100 (0) % | 79 | 90 | 85.7 (7.2) % | > 10 | 3.8 ± 0.3 |  | 16.7 (0) % | 90 (1.7) % | 100 (0) % | 100 (0) % | ~0.2 | % egg laying ([2]; 1 μM, 72 h, single experiment): 116%; % egg laying ([2]; 10 μM, 24 h, SD in brackets): 93 (27) %; % egg laying ([2]; 10 μM, 48 h, SD in brackets): 97 (14) %; % egg laying ([2]; 10 μM, 72 h, SD in brackets): 122 (14) %; % egg laying ([2]; 20 μM, 24 h, SD in brackets): 56 (22) %; % egg laying ([2]; 20 μM, 48 h, SD in brackets): 75 (19) %; % egg laying ([2]; 20 μM, 72 h, SD in brackets): 109 (47) %; adult worms' percentage of viability reduction, 72 h ([3]; 10 μM): 27.5 (2) %; selectivity toward SmSIRT2 over the human isoform (SmSirt2; SmSirt2 vs hSirt2): selectively active against the parasite enzyme; IC50 (hSirt2; ref footnote a (reference number not given)): > 50 µM; reduction of viability of adult worm pairs ([4]; 72 h): 20%; IC50 [5]: 0.25 µM
7 | CC(/C=C/C(=O)NO)=C\[C@@H](C)C(=O)c1ccc(N(C)C)cc1 [TSA] |  |  |  |  |  |  |  |  |  |  |  |  |  |  |  |  |  |  |  |  | cytosolic cytochrome c level [6]: increased levels of cytochrome c
8 | Cn1c(=O)nc2oc3ccc4ccccc4c3cc-2c1=O [Compound 2, 10-Methyl-9H-benzo[5,6]chromeno[2,3-d]pyrimidine-9,11(10H)-dione] |  |  |  |  |  |  |  |  |  |  |  | 82.1 (3.6) % | > 10 | 2.3 ± 0.1 | 11.2 ± 0.3 | 20.8 (0) % | 43.8 (2.1) % | 61.5 (3.8) % | 85.7 (3.6) % | 1.5 | adult worms' percentage of viability reduction, 72 h ([3]; 10 μM): 37.3 (3.9) %
